Laboratory results as given in US12084472B2 (Ardelyx, Inc., priority 2015, dated 2024).

How the values were obtained:
human TGR5 = target: T1, human TGR5 (Homo sapiens, UniProt Q8TDU6); assay: Cell-based TGR5 assay (cAMP generation, HTRF); settings: HEK293 cells stably transfected with human TGR5; cAMP by HTRF; 30 minutes at 37° C.; read-out: pEC50 Human TGR5 (converted)
T1 construct: expressed in transfected cells; host or cells: HEK293
T1 sequence (Q8TDU6 1-330): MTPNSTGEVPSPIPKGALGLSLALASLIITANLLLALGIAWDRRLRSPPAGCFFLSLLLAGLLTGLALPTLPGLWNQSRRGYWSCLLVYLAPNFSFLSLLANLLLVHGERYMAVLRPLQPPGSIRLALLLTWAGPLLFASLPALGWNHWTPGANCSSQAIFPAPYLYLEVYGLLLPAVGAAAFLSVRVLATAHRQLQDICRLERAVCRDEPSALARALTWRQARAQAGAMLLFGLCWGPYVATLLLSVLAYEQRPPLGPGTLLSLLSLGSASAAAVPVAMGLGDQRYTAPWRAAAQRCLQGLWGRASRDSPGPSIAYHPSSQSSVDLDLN
Procedure, shortened: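 Read-out was HTRF detection of cAMP, converted to concentration via a standard curve and fitted (3-parameter logistic) for pEC50 and maximal response. Agonist stimulation used HEK293 cells stably transfected with human TGR5, incubated 30 min at 37° C in IBMX-containing buffer at 0.05 nM to 10 μM compound.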

[1] = tested on: mice with 5-FU-induced diarrhea; assay: Chemotherapy-induced diarrhea model (5-FU), fecal form score; assay type: in vivo, CD-1 female mice; settings: 5-FU 60 mg/kg IP days 5-11; I-388 30 mg/kg PO BID, teduglutide 0.4 mg/kg SQ BID, days 1-13; FFS days 11-13 summed; FIG. 1
Experimental: Four groups of adult CD-1 female mice on regular chow were dosed with the following BID starting on Day 1: 2 groups, vehicle (10% hydroxypropyl-β-cyclodextrin in PBS; PO; 5 mL/kg); 1 group, Compound I-388 at 30 mg/kg in vehicle (PO; 5 mL/kg); and 1 group, teduglutide 0.4 mg/kg (American Peptide, Sunnyvale, CA; reconstituted in PBS; SQ; 10 mL/kg) 0.4 mg/kg SQ. On Days 5-11, the groups of mice were also given QD IP injections (5 mL/kg) of the following treatments: first vehicle group, PBS and remaining groups, 5-fluorouracil (5-FU) 60 mg/kg (Fresenius Kabi USA, Lake Zurich, IL) diluted in PBS to induce mucositis with diarrhea. Body weight was measured throughout the study and fecal form was scored on Day 11-13 of the study according to the following scale: 0, normal stool; 1, slightly wet and soft stool; 2, wet and unformed stool with moderate perianal staining of the coat; 3, watery stool with severe perianal staining of the coat.
All mice were dosed on day 1-13 with vehicle, with 0.4 mg/kg of teduglutide, or with 30 mg/kg of compound I-388 (vehicle and Cmpd. I-388: PO, […] and teduglutide: SQ, 10 mL/kg). PBS or 5-FU at 60 mg/kg (used to induce mucositis and diarrhea) were administered interperionally (IP; 5 mL/kg) on days 5-11.

[2] = tested on: mice with DSS-induced colitis; assay: Inflammatory bowel disease model (DSS colitis): DAI, colon length, cytokines, histology; assay type: in vivo, C57BL/6 female mice; settings: I-389 30 mg/kg PO BID
Experimental: Six week old C57BL/6 female, were acclimated for 2 days. Starting on Day −2, 5 groups of mice were dosed PO (mL/kg) BID with 1) vehicle (10% HPCD); 2) vehicle; 3) vehicle; mice had sitagliptin (3.6 g/L for a dose of ˜800 mg/kg/day) added to their drinking water; 4) I-389 30 mg/kg; or 5) I-389 30 mg/kg; mice had sitagliptin (3.6 g/L for a dose of 800 mg/kg/day) added to their drinking water. On Day 0, mice in groups 2-5 were put on drinking water containing 1.5% DSS to induce colitis. Note: Groups 3 & 5 were on drinking water containing both DSS and sitagliptin. On Day 7, mice were taken off of DSS treatment and received either regular drinking water (Groups 1, 2, and 4) or drinking water with sitagliptin (Groups 3 and 5). On Day 8, mice were transferred to a separate container for DAI scoring which consists of evaluation of stool consistency, blood in stool, incidence of rectal prolapse, and body condition according to the scoring system shown in Table 19. The DAI score is a summation of each individual score in each category (columns) for a single animal. Mice were euthanized, blood was collected for plasma, colons were removed for length measurement, cytokine analysis, and histological staining, pathological analysis and scoring of colonic tissue damage. Colonic tissue damage was scored according to observed microscopic changes based on the following schema: 0=no significant change, 1=minimal, 2=mild, 3=moderate and 4=severe. Parametric data for each group are presented as mean±SEM. Statistical analysis was performed using one-way ANOVA followed by Holm-Sidak's multiple comparisons test. Statistical significance versus DSS/vehicle is marked as *, P<0.05; **, P<0.01, ***, P<0.001, and ****, P<0.0001. Statistical significance versus DSS/I-389 is marked as †††, P<0.001. Non-parametric data for each group is shown as a dot blot with median (line). Statistical analysis was performed using Kruskal-Wallis test followed by Dunn's test to detect differences between groups.

[3] = tested on: small intestine and colon of mice; assay: Small intestine and colon weight, villus/crypt length, colon crypt depth, plasma GLP-1 and GLP-2 in mice; assay type: in vivo, CD-1 female mice; settings: ten consecutive days
Experimental: Tedulgutide (a GLP-2 receptor agonist; American Peptide, catalog #304076, supplied by Bachem) 50 μg/kg in […] was injected SC in a control group BID during the same period. […] The small intestine and colon were collected, flushed with cold PBS to remove contests, patted dry, weighed and further trimmed for histological analysis. Morphometric analysis was performed to determine the villus/crypt length in the proximal jejunum and distal ileum and crypt depth (length) in the proximal colon.
Data for each group are presented as mean±SEM. Statistical analyses were performed using one-way ANOVA followed by Holm-Sidak's multiple comparisons test. Statistical significance compared to vehicle (WD) is marked as *, P<0.05; **, P<0.01, ***, P<0.001, and ****, P<0.0001.

Structure (SMILES) | EC50 (human TGR5) | cumulative fecal form score (FFS) [1] | DSS-induced colonic damage ([2]; 1.5% DSS in drinking water, sitagliptin 3.6 g/L in drinking water (~800 mg/kg/day)) | disease activity score (DAI) ([2]; Day 8, 1.5% DSS, sitagliptin ~800 mg/kg/day in drinking water, vehicle/DSS 5.6, FIG. 2) | colon length ([2]; Day 8, 1.5% DSS, sitagliptin ~800 mg/kg/day, mean±SEM, vehicle/DSS 4.7±0.1, FIG. 3) | increase of colon weight ([3]; teduglutide 50 μg/kg SC BID (trend), I-389 100 mg/kg PO BID co-dosed with sitagliptin 3.6 g/L in drinking water, FIG. 7, FIG. 8) | increase of small intestine weight ([3]; teduglutide 50 μg/kg SC BID, FIG. 7) | increase of villus-crypt length in the proximal jejunum ([3]; teduglutide 50 μg/kg SC BID, I-389 100 mg/kg PO BID + sitagliptin, FIG. 9) | increase of villus-crypt length in the distal ileum ([3]; teduglutide 50 μg/kg SC BID, I-389 100 mg/kg PO BID + sitagliptin, FIG. 10)
O=C(NCCCCNS(=O)(=O)c1ccc(Cl)c(COC2(c3cnccc3-c3ccccc3OC3CC3)CC2)c1)[C@@H](O)[C@@H](O)[C@H](O)[C@@H](O)CO [Compound I-388, (2S,3S,4R,5S)-N-(4-[[4-chloro-3-([1-[4-(2-cyclopropoxyphenyl)pyridin-3-yl]cyclopropoxy]methyl)benzene]sulfonamido]butyl)-2,3,4,5,6-pentahydroxyhexanamide] | < 100 nM | significantly improved |  |  |  |  |  |  | 
N[C@@H](CC(=O)N1CCn2c(nnc2C(F)(F)F)C1)Cc1cc(F)c(F)cc1F [sitagliptin] |  |  | partially abrogated | 3.0 | 5.6±0.2 cm |  |  |  | 
CC[C@H](C)[C@H](NC(=O)[C@H](Cc1ccccc1)NC(=O)[C@H](CC(=O)O)NC(=O)[C@H](CCCNC(=N)N)NC(=O)[C@H](C)NC(=O)[C@H](C)NC(=O)[C@H](CC(C)C)NC(=O)[C@H](CC(N)=O)NC(=O)[C@H](CC(=O)O)NC(=O)[C@H](CC(C)C)NC(=O)[C@@H](NC(=O)[C@@H](NC(=O)[C@H](CC(N)=O)NC(=O)[C@H](CCSC)NC(=O)[C@H](CCC(=O)O)NC(=O)[C@H](CC(=O)O)NC(=O)[C@H](CO)NC(=O)[C@H](Cc1ccccc1)NC(=O)[C@H](CO)NC(=O)CNC(=O)[C@H](CC(=O)O)NC(=O)CNC(=O)[C@@H](N)Cc1c[nH]cn1)[C@@H](C)O)[C@@H](C)CC)C(=O)N[C@@H](CC(N)=O)C(=O)N[C@@H](Cc1c[nH]c2ccccc12)C(=O)N[C@@H](CC(C)C)C(=O)N[C@H](C(=O)N[C@@H](CCC(N)=O)C(=O)N[C@H](C(=O)N[C@@H](CCCCN)C(=O)N[C@H](C(=O)N[C@H](C(=O)N[C@@H](CC(=O)O)C(=O)O)[C@@H](C)O)[C@@H](C)CC)[C@@H](C)O)[C@@H](C)CC [teduglutide] |  | significantly improved |  |  |  | 14% | 48% | 55% | 30%
